These results are taken from patent US20180312493A1, “Antibiotic Compounds, Pharmaceutical Formulations Thereof And Methods And Uses Therefor” (Simon Fraser University, priority 2015, published 2018).

The nature of this data set: Mammalian cytotoxicity, CellTiter 96 AQueous One (MTS). The format is cell-based. The settings on record: human, HeLa 229 cells, positive control. How it is done: The cytotoxic activities of compounds were determined for HeLa cells 229 (ATCC:CCL-2-.1) in microtiter cultures by measuring dehydrogenase activity using CellTiter 96® AQueous One Solution Cell Proliferation Assay™ (Promega™, Madison, Wis., USA), according to the manufacturer's protocol. Freshly split cells were seeded into microtiter wells (2×10^4/well) and grown for 24 hours. The original media was then removed and replaced with media containing the desired concentration of compound or solvent control (i.e., DMSO). Plates were incubated for 24 h at 37° C. in a humidified incubator with a 5% CO2 atmosphere. At the end of the growth period, cells were lysed by the addition of 20 μl of Cell Titer 96 Aqueous One™ solution, and the incubation was continued for another 3 h at 37° C. Production of formazan was determined at 490 nm on Benchmark Plus™ microplate spectrophotometer (Bio-Rad™). To control for intrinsic absorbance, control series containing inhibitor dilutions but no cells were run for every experiment and the resulting absorbance values were subtracted as background from the experimental readings. Growth in compound-free control wells was considered as 100% and percentage of growth inhibition was calculated for each compound concentration. Cytotoxicity was quantified as the CC50, the concentration of compound that inhibited 50% of conversion of MTS to formazan. […]

In brackets after ≈: the same amount, converted by molar mass.

In the case of `COc1cc(O)c(CC=C(C)C)c(O)c1C(=O)/C=C/c1ccc(O)cc1` [xanthohumol], the CC50 at 24 h was roughly 9 µg/mL (≈ 25.4 µM).
